Patent US10508085B2, “Compounds and methods for IDO and TDO modulation, and indications therefor” (Plexxikon Inc., priority 2016, dated 2019)

Columns and labels:
[1] = molecular target: T1, human TDO (TDO-expressing HEK293 cells) (Homo sapiens, UniProt P48775); assay: Cell based kynurenine assay, TDO-expressing HEK293 cell clones; settings: TDO-expressing HEK293 cells, 24 hours incubation; geometric mean; read-out: HEK293 TDO Kynurenine GMean IC50 (μM) (Cellular Assay)
T1 construct: expressed in transfected cells
T1 sequence (P48775 whole entry): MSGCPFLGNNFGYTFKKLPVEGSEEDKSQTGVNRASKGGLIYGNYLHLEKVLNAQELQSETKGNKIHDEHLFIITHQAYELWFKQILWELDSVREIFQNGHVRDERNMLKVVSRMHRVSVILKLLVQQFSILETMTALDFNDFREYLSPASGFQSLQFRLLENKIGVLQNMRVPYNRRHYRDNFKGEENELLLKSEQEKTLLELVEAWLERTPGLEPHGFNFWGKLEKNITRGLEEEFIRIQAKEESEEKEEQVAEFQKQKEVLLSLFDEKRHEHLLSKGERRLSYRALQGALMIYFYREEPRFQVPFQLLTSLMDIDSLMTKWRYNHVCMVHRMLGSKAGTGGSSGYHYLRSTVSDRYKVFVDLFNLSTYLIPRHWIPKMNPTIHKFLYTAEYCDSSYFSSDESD
In short: (§1)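 IC50 values come from nonlinear regression of kynurenine reduction in supernatants of human IDO1- or TDO-expressing HEK293 cells incubated 24 h with serially diluted compounds, normalised to cell and media-only controls containing 0.2% DMSO.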

[2] = molecular target: T2, Human Tryptophan 2,3-dioxygenase (TDO) (Homo sapiens, UniProt P48775); assay: Human TDO enzymatic assay (kynurenine level); type: biochemical; settings: 1 nM TDO, 350 μM L-Trp; geometric mean; read-out: TDO GMean: IC50 (μM) (Biochemical Assay)
T2 construct: His tag (N); made in house; host or cells: E. coli
T2 sequence (P48775 whole entry): as above
In short: (§2)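 Reactions were stopped with TCA, converting N-formylkynurenine to kynurenine for quantitation, with IC50 by nonlinear regression. IDO: 6 nM enzyme, 10 μM L-Trp, 20 min RT. TDO: 1 nM enzyme, 350 μM L-Trp, 70 min RT, both in pH 6.5 buffer.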

[3] = molecular target: T3, Human Indoleamine 2,3-dioxygenase (IDO) (Homo sapiens, UniProt P14902); assay: Human IDO enzymatic assay (kynurenine level); type: biochemical; settings: 6 nM IDO, 10 μM L-Trp; geometric mean; read-out: IDO1 GMean: IC50 (μM) (Biochemical Assay)
T3 construct: His tag (N); made in house; host or cells: E. coli
T3 sequence (P14902 whole entry): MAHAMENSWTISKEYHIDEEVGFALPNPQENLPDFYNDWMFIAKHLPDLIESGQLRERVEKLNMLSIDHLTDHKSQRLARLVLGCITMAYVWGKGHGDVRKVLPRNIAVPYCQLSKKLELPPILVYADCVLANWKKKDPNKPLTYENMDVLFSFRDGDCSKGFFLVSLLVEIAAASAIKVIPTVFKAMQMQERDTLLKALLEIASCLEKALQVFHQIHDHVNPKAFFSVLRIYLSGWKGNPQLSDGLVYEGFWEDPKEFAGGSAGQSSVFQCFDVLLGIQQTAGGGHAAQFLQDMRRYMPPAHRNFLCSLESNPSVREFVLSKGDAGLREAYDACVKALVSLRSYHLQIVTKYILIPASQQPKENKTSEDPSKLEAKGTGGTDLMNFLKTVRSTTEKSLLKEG
In short: as §2

[4] = molecular target: T4, human IDO (IDO1-expressing HEK293 cells) (Homo sapiens, UniProt P14902); assay: Cell based kynurenine assay, IDO1-expressing HEK293 cell clones; settings: IDO1-expressing HEK293 cells, 24 hours incubation; geometric mean; read-out: HEK293 IDO1 Kynurenine GMean IC50 (μM) (Cellular Assay)
T4 construct: expressed in transfected cells
T4 sequence (P14902 whole entry): as above
In short: as §1

SMILES | IC50 [1] [µM] | IC50 [2] [µM] | IC50 [3] [µM] | IC50 [4] [µM]
[2H]C(O)(c1cc(Cl)cc2cn[nH]c12)C(C)(C)C1CCOCC1 (stereo not drawn) [Compound P-0244, 1-(5-chloro-1H-indazol-7-yl)-2-methyl-2-(tetrahydro-2H-pyran-4-yl)propan-1-d-1-ol] | 0.0001 to 10 | 0.0001 to 10 | 0.0001 to 10 | 0.0001 to 10
OC(c1c(F)c(Cl)c(F)c2cn[nH]c12)C1CCC1 (centres unmarked) [Compound P-0246, (5-chloro-4,6-difluoro-1H-indazol-7-yl)(cyclobutyl)methanol] | 0.0001 to 10 | 0.0001 to 10 | 0.0001 to 10 | 0.0001 to 10
OC(c1c(F)c(Cl)c(F)c2cn[nH]c12)C1(C2CCCCC2)CC1 (centres unmarked) [Compound P-0247, (5-chloro-4,6-difluoro-1H-indazol-7-yl)(1-cyclohexylcyclopropyl)methanol] | 0.0001 to 10 | 0.0001 to 10 | 0.0001 to 10 | 0.0001 to 10
CC(C)(C)C(O)c1c(F)c(Cl)c(F)c2cn[nH]c12 (centres unmarked) [Compound P-0248, 1-(5-chloro-4,6-difluoro-1H-indazol-7-yl)-2,2-dimethylpropan-1-ol] | > 10 | 0.0001 to 10 | 0.0001 to 10 | 0.0001 to 10
OC1(c2c(F)c(Cl)c(F)c3cn[nH]c23)CC2(C1)C1CCCC2CCC1 (centres unmarked) [Compound P-0249, (1s,5s)-3′-(5-chloro-4,6-difluoro-1H-indazol-7-yl)spiro[bicyclo[3.3.1]nonane-9,1′-cyclobutan]-3′-ol] | > 10 | 0.0001 to 10 | 0.0001 to 10 | 0.0001 to 10
CC(C)(C(O)c1cc(Cl)cc2cn[nH]c12)C(F)(F)F (centres unmarked) [Compound P-0250, 1-(5-chloro-1H-indazol-7-yl)-3,3,3-trifluoro-2,2-dimethylpropan-1-ol] | 0.0001 to 10 | 0.0001 to 10 | 0.0001 to 10 | 0.0001 to 10
CC(C)(C1CCC1)C(O)c1c(F)c(Cl)c(F)c2cn[nH]c12 (centres unmarked) [Compound P-0251, 1-(5-chloro-4,6-difluoro-1H-indazol-7-yl)-2-cyclobutyl-2-methylpropan-1-ol] | 0.0001 to 10 | 0.0001 to 10 | 0.0001 to 10 | 0.0001 to 10
CC(C)(C1CCCC1)C(O)c1c(F)c(Cl)c(F)c2cn[nH]c12 (centres unmarked) [Compound P-0252, 1-(5-chloro-4,6-difluoro-1H-indazol-7-yl)-2-cyclopentyl-2-methylpropan-1-ol] | > 10 | 0.0001 to 10 | 0.0001 to 10 | 0.0001 to 10
CC(C)(C1CCCCC1)C(O)c1c(F)c(Cl)c(F)c2cn[nH]c12 (centres unmarked) [Compound P-0253, 1-(5-chloro-4,6-difluoro-1H-indazol-7-yl)-2-cyclohexyl-2-methylpropan-1-ol] | 0.0001 to 10 | 0.0001 to 10 | 0.0001 to 10 | 0.0001 to 10
CC(C)(CC1CCOCC1)C(O)c1cc(Cl)cc2cn[nH]c12 (centres unmarked) [Compound P-0254, 1-(5-chloro-1H-indazol-7-yl)-2,2-dimethyl-3-(tetrahydro-2H-pyran-4-yl)propan-1-ol] | 0.0001 to 10 | 0.0001 to 10 | 0.0001 to 10 | 0.0001 to 10
CCC(C)(CC)C(O)c1cc(Cl)cc2cn[nH]c12 (centres unmarked) [Compound P-0255, 1-(5-chloro-1H-indazol-7-yl)-2-ethyl-2-methylbutan-1-ol] | 0.0001 to 10 | 0.0001 to 10 | 0.0001 to 10 | 0.0001 to 10
CCC(CC)(CCC#N)C(O)c1cc(Cl)cc2cn[nH]c12 (centres unmarked) [Compound P-0256, 4-((5-chloro-1H-indazol-7-yl)(hydroxy)methyl)-4-ethylhexanenitrile] | 0.0001 to 10 | 0.0001 to 10 | 0.0001 to 10 | 0.0001 to 10
OC(c1c(F)c(Cl)cc2cn[nH]c12)C12CC3CC(CC(C3)C1)C2 [Compound P-0257, ((1S,3s)-adamantan-1-yl)(5-chloro-6-fluoro-1H-indazol-7-yl)methanol] | 0.0001 to 10 | 0.0001 to 10 | 0.0001 to 10 | 0.0001 to 10
OC(c1c(F)c(Cl)cc2cn[nH]c12)C1CC2CCC1C2 (centres unmarked) [Compound P-0258, bicyclo[2.2.1]heptan-2-yl(5-chloro-6-fluoro-1H-indazol-7-yl)methanol] | 0.0001 to 10 | 0.0001 to 10 | 0.0001 to 10 | 0.0001 to 10
CC(C1CC1)(C1CC1)C(O)c1cc(Cl)cc2cn[nH]c12 (centres unmarked) [Compound P-0259, 1-(5-chloro-1H-indazol-7-yl)-2,2-dicyclopropylpropan-1-ol] | 0.0001 to 10 | 0.0001 to 10 | 0.0001 to 10 | 0.0001 to 10
CC(C1CC1)(C1CC1)C(O)c1c(F)c(Cl)cc2cn[nH]c12 (centres unmarked) [Compound P-0260, 1-(5-chloro-6-fluoro-1H-indazol-7-yl)-2,2-dicyclopropylpropan-1-ol] | 0.0001 to 10 | 0.0001 to 10 | 0.0001 to 10 | 0.0001 to 10
CC(C)(C1CCN(S(C)(=O)=O)CC1)C(O)c1c(F)c(Cl)cc2cn[nH]c12 (centres unmarked) [Compound P-0261, 1-(5-chloro-6-fluoro-1H-indazol-7-yl)-2-methyl-2-(1-(methylsulfonyl)piperidin-4-yl)propan-1-ol] | 0.0001 to 10 | 0.0001 to 10 | 0.0001 to 10 | 0.0001 to 10
OC(c1c(F)c(Cl)cc2cn[nH]c12)C(F)(F)C1CCOCC1 (centres unmarked) [Compound P-0262, 1-(5-chloro-6-fluoro-1H-indazol-7-yl)-2,2-difluoro-2-(tetrahydro-2H-pyran-4-yl)ethan-1-ol] | 0.0001 to 10 | 0.0001 to 10 | 0.0001 to 10 | 0.0001 to 10
CC1(C(O)c2cc(Br)cc3cn[nH]c23)CCCCC1 (centres unmarked) [Compound P-0263, (5-bromo-1H-indazol-7-yl)(1-methylcyclohexyl)methanol] | 0.0001 to 10 | 0.0001 to 10 | 0.0001 to 10 | 0.0001 to 10
CC1(C(O)c2c(F)c(Cl)c(F)c3cn[nH]c23)CCC1 (centres unmarked) [Compound P-0264, (5-chloro-4,6-difluoro-1H-indazol-7-yl)(1-methylcyclobutyl)methanol] | > 10 | 0.0001 to 10 | 0.0001 to 10 | 0.0001 to 10
OC(c1c(F)c(Cl)c(F)c2cn[nH]c12)C1(C(F)(F)F)CCC1 (centres unmarked) [Compound P-0265, (5-chloro-4,6-difluoro-1H-indazol-7-yl)(1-(trifluoromethyl)cyclobutyl)methanol] | 0.0001 to 10 | 0.0001 to 10 | 0.0001 to 10 | 0.0001 to 10
O=S(=O)(c1ccccc1)C1(C(O)c2cc(Cl)cc3cn[nH]c23)CC1 (centres unmarked) [Compound P-0266, (5-chloro-1H-indazol-7-yl)(1-(phenylsulfonyl)cyclopropyl)methanol] | > 10 | 0.0001 to 10 | 0.0001 to 10 | > 10
CCC(CC)(CC)C(O)c1cc(Cl)cc2cn[nH]c12 (centres unmarked) [Compound P-0267, 1-(5-chloro-1H-indazol-7-yl)-2,2-diethylbutan-1-ol] | 0.0001 to 10 | 0.0001 to 10 | 0.0001 to 10 | 0.0001 to 10
CCC(CC)C(O)c1cc(Cl)cc2cn[nH]c12 (centres unmarked) [Compound P-0268, 1-(5-chloro-1H-indazol-7-yl)-2-ethylbutan-1-ol] | 0.0001 to 10 | 0.0001 to 10 | 0.0001 to 10 | 0.0001 to 10
OC(c1cc(Cl)cc2cn[nH]c12)C12CCC(C(F)F)(CC1)CC2 (centres unmarked) [Compound P-0269, (5-chloro-1H-indazol-7-yl)(4-(difluoromethyl)bicyclo[2.2.2]octan-1-yl)methanol] | 0.0001 to 10 | 0.0001 to 10 | 0.0001 to 10 | 0.0001 to 10
CS(=O)(=O)N1CCC(C(F)(F)C(O)c2cc(Cl)cc3cn[nH]c23)CC1 (centres unmarked) [Compound P-0270, 1-(5-chloro-1H-indazol-7-yl)-2,2-difluoro-2-(1-(methylsulfonyl)piperidin-4-yl)ethan-1-ol] | 0.0001 to 10 | 0.0001 to 10 | 0.0001 to 10 | 0.0001 to 10
CC(C)(C(O)c1cc(Cl)cc2cn[nH]c12)[C@H]1C[C@H]2CC[C@@H](C1)N2S(C)(=O)=O (stereo partly drawn) [Compound P-0271, 1-(5-chloro-1H-indazol-7-yl)-2-methyl-2-((1R,3r,5S)-8-(methylsulfonyl)-8-azabicyclo[3.2.1]octan-3-yl)propan-1-ol] | 0.0001 to 10 | 0.0001 to 10 | 0.0001 to 10 | 0.0001 to 10
CC(C)(C(O)c1cc(Cl)cc2cn[nH]c12)[C@@H]1C[C@H]2CC[C@@H](C1)N2S(C)(=O)=O (stereo partly drawn) [Compound P-0272, 1-(5-chloro-1H-indazol-7-yl)-2-methyl-2-((1R,3s,5S)-8-(methylsulfonyl)-8-azabicyclo[3.2.1]octan-3-yl)propan-1-ol] | 0.0001 to 10 | 0.0001 to 10 | 0.0001 to 10 | 0.0001 to 10
CC(C)(C)OC(=O)N1CC2CCC(C1)C2CC(O)c1cc(Cl)cc2cn[nH]c12 (centres unmarked) [Compound P-0273, tert-butyl 8-(2-(5-chloro-1H-indazol-7-yl)-2-hydroxyethyl)-3-azabicyclo[3.2.1]octane-3-carboxylate] | 0.0001 to 10 | 0.0001 to 10 | 0.0001 to 10 | 0.0001 to 10
